“Also recorded” adds a separate entry of the source. Counter-ions that a name gives are not always drawn.
What was measured:
[1] = Isothermal titration calorimetry (ITC) with CB[8]; assay type: binding; settings: 1000 μM in syringe into CB[8] 50 μM; aqueous NaCl (1 mM), 298 K
Description: All microcalorimetric titrations were performed in a thermostated TA Nano Isothermal Titration calorimeter at atmospheric pressure and 298 K. The samples were dissolved in an aqueous NaCl (1.0 mM) solution, in order to improve the solubility of CB[8], and the concentrations of sample were calibrated by UV-Vis absorption spectroscopy after filtered by a 0.45-filter. A solution of one reactant in a syringe was sequentially injected with stirring at 150 rpm into a solution of the other reactant in the sample cell with a constant volume of 185 μL. A representative titration curve is shown in FIG. 24, each titration of reactant into the sample cell gave an apparent reaction heat caused by the formation of the inclusion complex. The reaction heat decreases gradually until a balance was reached, whereupon only the dilution heat was measured. The net reaction heat was obtained by subtracting the dilution heat from the apparent reaction heat. The resulting data were analyzed with NanoAnalyze software using a 1:1 binding model to give the complex stability constant (Ka), standard molar reaction enthalpy (ΔH), and standard deviations. Generally, the first point of the titration curve was disregarded, as there is some liquid mixing near the tip of the injection needle before ITC run. […]
The value for K1 can be determined to be 5.8×10^7 M^−1 by analysis of the UV-Vis titration data. […]

[2] = 1H NMR of equimolar mixture with CB[8]; assay type: binding; settings: D2O, 298 K
Source text: The peaks in the spectrum were assigned on the basis of in-depth analyses of their 2D ^1H-^1H COSY and ROESY spectra. The chemical shifts of H-7, residing on the central phenylene groups, as well as H-5 and H-6, attached to the C═C double bonds, show (FIG. 2d) large upfield shifts (Δδ=−0.64, −0.43 and −1.12 for H-5, H-6, and H-7, respectively). While the protons on CB[8] display (FIG. 7) small upfield shifts (Δδ=−0.09, −0.11 and −0.13 for H-a, H-b, and H-c, respectively). […] Taken together, it can be concluded that, although OPVEBox^4+ and CBPQT^4+ have the same p-xylylene linkers, only OPVEBox^4+ can form ring-in-ring(s) complexes with CB[8] in aqueous solutions. […]
All solvents and reagents were obtained commercially and used without further purification unless noted otherwise. […] UV-Vis Absorption spectra were recorded in a conventional rectangular quartz cell (10×10×45 mm) on a UV-3600 Shimadzu spectrophotometer. Fluorescence spectra were measured in a rectangular quartz cell (10×10×45 mm) on a HORIBA FluoroMax-4 spectrometer, which was equipped with an integrating sphere for absolute fluorescence quantum yields determination and time-correlated single-photon counting (TCSPC) module for emission decays. […] Electrospray ionization-mass spectra (ESI-MS) were measured on Waters Synapt G2 mass spectrometer. […]

[3] = Water solubility (qualitative statements); assay type: physicochemical; settings: H2O
[4] = literature value (ref 34); cited from earlier work

SMILES: c1cc2ccc1C[n+]1ccc(cc1)-c1cc[n+](cc1)Cc1ccc(cc1)C[n+]1ccc(cc1)-c1cc[n+](cc1)C2 [CBPQT^4+, cyclobis(paraquat-p-phenylene)]
- enthalpy change upon addition into CB[8] [1]: no obvious enthalpy change
- binding with CB[8] by 1H NMR [2]: may bind very weakly to the p-xylylene linkers

SMILES: O=C1N2CN3C(=O)N4CN5C(=O)N6CN7C(=O)N8CN9C(=O)N%10CN%11C(=O)N%12CN%13C(=O)N%14CN%15C(=O)N%16CN1C1C2N2CN%17C(=O)N(CN%18C(=O)N(CN%19C(=O)N(CN%20C(=O)N(CN%21C(=O)N(CN%22C(=O)N(CN%23C(=O)N(CN1C2=O)C%16C%15%23)C%14C%13%22)C%12C%11%21)C%10C9%20)C8C7%19)C6C5%18)C4C3%17 (stereo not shown) [CB[8], cucurbit[8]uril]
- water solubility [3]: poor water solubility; also recorded: low solubility

SMILES: CC12CC3CC(C)(C1)CC(N)(C3)C2 [memantine hydrochloride]
- binding affinity Ka for CB[8] [4]: 8.3e+12 M⁻¹

Source: US20230322781A1 (Northwestern University, priority 2020, published 2023)
